# Laboratory results: patent US6465494B1, “Methods for treatment of cystic fibrosis” (Cell Pathways, Inc., priority 2001, dated 2002)
# Entries after “also recorded” stand apart in the source; their conditions may differ. Where a name gives a salt, the structure may show the parent alone. Read-outs that look alike come from different tables or passages of the source.
# Legend:
# [1] = biological target: T1, GST-cGB-PDE5 fusion protein (Homo sapiens, UniProt O76074); assay: cGMP binding assay with GST-cGB-PDE5 fusion protein; settings: 3H-cGMP 2 μM, 22° C., 1 hour
# T1 construct: made in house; host or cells: E. coli BL21 (DE3)
# Excerpt: RT-PCR method is used to obtain the cGB domain of PDE5 with forward and reverse primers designed from bovine PDE5A cDNA sequence (McAllister-Lucas L. M et al, J. Biol. Chem. 268, 22863-22873, 1993) and the selection among PDE 1-10 families. 5′-3′, Inc. kits for total RNA followed by oligo (dT) column purification of mRNA are used with HT-29 cells. […] It is then cloned into pGEX-5X-3 glutathione-S-transferase (GST) fusion vector (Pharmacia Biotech )with tac promoter, and EcoRI and XhoI cut sites. The fusion vector is then transfected into E. Coli BL21 (DE3) bacteria (Invitrogen). The transfected BL21 bacteria is grown to log phase, and then IPTG is added as an inducer. The induction is carried at 20° C. for 24 hrs. The bacteria are harvested and lysed. The soluble cell lysate is incubated with GSH conjugated Sepharose 4B (GSH-Sepharose 4B). The GST-cGB-PDE5 fusion protein can bind to the GSH-Sepharose beads, and the other proteins are washed off from beads with excessive cold PBS.
# Then, the mixture is transferred to Brandel MB-24 cell harvester with GF/B as the filter membrane followed by 2 washes with 10 mL of cold 5 mM potassium buffer(pH 6.8). The membranes are then cut out and transferred to scintillation vials followed by the addition of 1 mL of H2O and 6 mL of Ready Safe™ liquid scintillation cocktail to each vial. The vials are counted on a Beckman LS 6500 scintillation counter.
# The quenching by filter membrane or other debris are also calibrated.
# [2] = acute toxicity study in rats; settings: rat, in vivo; for LD50: rats
# [3] = seven-day dose-range finding study in rats; assay type: in vivo; settings: 7 days
# 28-day study in rats = assay type: in vivo
# Method: A 28-day study in rats was also carried out at 0, 50, 500 and 2000 mg/kg/day.
# [4] = 91-day oral study in dogs; assay type: in vivo
# [5] = single, escalating dose human clinical safety study; assay type: in vivo; settings: oral, 50 mg BID, 100 mg BID, 200 mg BID and 400 mg BID
# U937 cells = assay: apoptosis induction of U937 cells (active caspase 3 immunofluorescence); assay type: cell-based; settings: 1 μM, 24 hours, hydrochloride
# Method: The U937 monocyte cell line was derived from a histocytic lymphoma and can be driven to differentiate into an ‘activated macrophage like’ state by treatment with 5nM phorbal ester (TPA). Treated U937 cells become adherent, increase their cytoplasmic volume and express macrophage-specific cell surface markers. The presence and level of PDE2 and 5 mRNA in both differentiated and non-differentiated U937 cells was confirmed by performing RT-PCR experiments on total RNA.
# U937 cells (from ATCC Rockville, Md.) were grown in RPMI media supplemented with 5% FCS, glutamine, antibiotic/antimycotic and sodium pyruvate. Total RNA was isolated from two U937 cultures, one treated with 5nM TPA for 48 hours and one grown in normal media as listed above, using the Rouche High Pure RNA Isolation Kit (cat# 1 828 665) as per manufacturers protocol. cDNA was then synthesized from the total RNA using GibcoBRL Superscriptll (Cat # 18064-022) reverse transcriptase as per manufacturers protocol. The resulting cDNA was used as a template for RT-PCR reactions using primer sets specific for PDE2 (forward: […], reverse: […]) or PDE5 (forward: […], reverse: […]). mRNA for PDE2 and 5 were both present in the untreated U937 cells. Upon treatment with TPA, the relative amounts of PDE2 mRNA increased 5 fold. Therefore, U937 cells treated with TPA and driven to differentiate into an activated macrophage like state have elevated levels of PDE2 mRNA (see FIG. 1).
# The presence of PDE2 and PDE5 protein within U937 cells was confirmed by indirect immunofluorescence (IIF). U937 cells were cultured as above. Two U937 cultures, one grown in the presence of 5 nM TPA for 48 hours and one grown in normal media were processed. All cultures were collected by centrifugation (Shandon Cytospin, 2 minutes @ 600 rpm) onto poly-L lysine-coated slides and immediately fixed in fresh 3% paraformaldehyde buffered in PBS for 10 minutes. Adherent cultures were grown on coverslips and fixed as above. […]
# The level of apoptosis in U937 cells was quantified by scoring 500 consecutive cells for the presence of active caspase 3. […]
# [6] = 28 days, 50, 500 and 2000 mg/kg/day
smiles,measurement,setting,value
"CC1=C(CC(=O)NCc2ccccc2)c2cc(F)ccc2/C1=C\c1ccncc1 [Example 38, (Z)-5-fluoro-2-methyl-(4-pyridylidene)-3-(N-benzyl)indenylacetamide hydrochloride]",competition with cGMP in binding to the cGMP binding sites of GST-cGB-PDE5,[1],does not bind to the cGMP-binding site of PDE5
same,acute toxicity on a single-dose basis,[2],not acutely toxic
same,body weight gain,"[2]; ip, 1000 mg/kg",reduced body weight gain
same,necropsy finding,"[2]; ip, 1000 mg/kg",mesenteric adhesions seen in some animals
same,LD50,"[2]; ip, 1000 mg/kg, intraperitoneal, read-out: intraperitoneal LD50",> 1000 mg/kg
same,body weight gains,"[2]; po, 2000 mg/kg",slightly reduced
same,LD50,"[2]; oral, read-out: oral LD50",> 2000 mg/kg
same,observable signs of toxicity,[3]; 50 mg/kg/day,no observable signs of toxicity
same,treatment-related effects,[3]; 500 mg/kg/day,limited to an increase in absolute and relative liver weights in female rats
same,treatment-related effects,[3]; 2000 mg/kg/day,"labored breathing and/or abnormal respiratory sounds, decreased weights gains and food consumption in male rats, and increased liver weights in female rats"
same,"hematological, blood chemistry and microscopic pathology changes","[3]; any dose level (50, 500, 2000 mg/kg/day)",No hematological or blood chemistry changes nor any microscopic a pathology changes
same,macroscopic tissue changes at necropsy,28-day study in rats; 28 days,No macroscopic tissue changes
same,histopathological evaluation of tissues,"28-day study in rats; 28 days, 500 mg/kg/day",one female at 500 mg/kg/day had increased mitotic figures in the thyroid gland
same,liver weights,"28-day study in rats; 28 days, 2000 mg/kg/day",statistically significant increase in liver weights
same,thyroid weights,"28-day study in rats; 28 days, 2000 mg/kg/day",statistically significant increases in thyroid weights
same,"body weight changes, ophthalmoscopic examinations, hematological and blood chemistry values, urinalysis",28-day study in rats; [6],unremarkable
same,clinical observations,28-day study in rats; [6],no abnormal clinical observations
same,liver and thyroid weight increases at the lower doses,"28-day study in rats; 28 days, 50 and 500 mg/kg/day",not statistically significant
same,histopathological evaluation of tissues,"28-day study in rats; 28 days, small number of animals at 2000 mg/kg/day","traces of follicular cell hypertrophy, increased numbers of mitotic figures (suggestive of possible cell proliferation) in the thyroid gland and mild centrilobular hypertrophy in the liver"
same,tolerability,[4]; 91 days,well tolerated
same,feces observation,"[4]; 91 days, 150 and 300 mg/kg/day",Orange discoloration of the feces
same,body weights,"[4]; 91 days, highest dose group",Slightly lowered body weights
same,liver weights,"[4]; 91 days, highest dose group",increased liver weights
same,microscopic alterations of liver,"[4]; 91 days, highest dose group",no microscopic alterations
same,toxicological effects overall,"[4]; oral, 91 consecutive days, 50, 150 and 300 mg/kg/day",no toxicological effects
same,side effects,[5],no significant side effects at any dose
same,induction of apoptosis (active caspase 3),U937 cells,undergoing apoptosis as reflected by the presence of active caspase 3; also recorded: causes the induction of apoptosis in the differentiated and non-differentiated U937 cell line
